From publication PMC12084609, “Structural insights into small-molecule agonist recognition and activation of complement receptor C3aR” (The EMBO Journal, 2025)
Substitutions are numbered along the chain they refer to. Several values for one entry are separate records, joined by “and”; a condition that tells them apart may be missing. Equal entries are not always repeated. Where two headings read alike, the source gives them in different places.

Assays:
Assay type in all cases: cell-based
[1] = molecular target: T1, C3aR WT (Homo sapiens, UniProt Q16581); experiment: GloSensor-based cAMP assay, WT C3aR (HEK293T); conditions: for remaining activity at 0.0001 µM / remaining activity at 10 pM: HEK-293T; for IC50: WT C3aR
T1 construct: expressed in transfected cells; host or cells: HEK293T
T1 sequence (Q16581 1-482): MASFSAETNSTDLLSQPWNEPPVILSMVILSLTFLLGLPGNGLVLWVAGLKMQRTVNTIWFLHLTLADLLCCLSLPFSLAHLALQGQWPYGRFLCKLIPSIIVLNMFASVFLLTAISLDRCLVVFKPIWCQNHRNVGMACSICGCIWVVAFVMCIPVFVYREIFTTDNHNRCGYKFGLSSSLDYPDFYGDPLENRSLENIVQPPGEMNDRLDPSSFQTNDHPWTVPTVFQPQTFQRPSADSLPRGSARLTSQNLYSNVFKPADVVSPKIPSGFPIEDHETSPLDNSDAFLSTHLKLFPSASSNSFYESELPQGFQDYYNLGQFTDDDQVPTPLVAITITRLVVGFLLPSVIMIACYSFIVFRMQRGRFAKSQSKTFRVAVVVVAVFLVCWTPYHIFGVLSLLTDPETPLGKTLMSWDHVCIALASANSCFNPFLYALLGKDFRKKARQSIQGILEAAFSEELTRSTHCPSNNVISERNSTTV
Protocol: (§1) HEK293T cells were seeded on 6-well plates (NEST) and transfected with pGlosensor™-22F plasmids (Promega) and pcDNA3.1 plasmids encoding C3aR or its mutants an with N-terminal FLAG tag. After 48 h, cells were detached with Accutase solution (Sigma-Aldrich) and washed with PBS, and resuspended in assay buffer (CO2-independent medium with 0.5 mg mL^−1D-luciferin). 100,000–200,000 cells were seeded on 96-well white bottom plates (SPL) and incubated at 37 °C for 45 min followed by 45 min incubation at room temperature. After 90 min of incubation, basal luminescence signals were recorded. In total, 25 μl of test ligand with various concentrations and 1 μM Forskolin (Sigma-Aldrich) were treated to the cells and luminescence signals were measured by Tristar 2 LB 942 multimode reader (Berthold). […] Relative luminescence unit (%) was calculated with the signal of wells treated with vehicle as 0% and the signal of wells treated with 1 μM Forskolin as 100% (DiRaddo et al, [2014]). Nonlinear regression was performed using a three-parameter logistic equation.

[2] = molecular target: T2, C3aR I98^3.28A (Homo sapiens, UniProt Q16581, I98A); experiment: GloSensor-based cAMP assay, C3aR mutant I98A
T2 construct: expressed in transfected cells; host or cells: HEK293T
T2 sequence (Q16581 1-482 I98A): T1 sequence (Q16581 1-482) with I98A
Protocol: as §1

[3] = molecular target: T3, C3aR V103^3.33A (Homo sapiens, UniProt Q16581, V103A); experiment: GloSensor-based cAMP assay, C3aR mutant V103A
T3 construct: expressed in transfected cells; host or cells: HEK293T
T3 sequence (Q16581 1-482 V103A): T1 sequence (Q16581 1-482) with V103A
Protocol: as §1

[4] = Dunnett's multiple comparisons test, WT minus mutant

Compound: Cc1cc(C(c2ccc(Cl)cc2)c2ccc(Cl)cc2)sc1C(=O)N[C@@H](CCCNC(=N)N)C(=O)O [JR14a, reference compound]
- remaining activity at 0.0001 µM ([1]; read-out: cAMP response (% Forskolin), Log[ligand (M)] -10, individual replicates): 93.3%
- remaining activity at 10 pM ([1]; read-out: cAMP response (% Forskolin), Log[ligand (M)] -11, individual replicates): 95.3%
- remaining activity at 0.0001 µM ([1]; read-out: cAMP response (% Forskolin), WT, Log[JR14a (M)] -10, single replicates): 93.3%
- remaining activity at 10 pM ([1]; read-out: cAMP response (% Forskolin), WT, Log[JR14a (M)] -11, single replicates): 95.3%
- IC50 ([1]; decrease in cAMP levels, read-out: IC50): 4 nM
- IC50 ([1]; individual replicates, read-out: pIC50 (Replicate) (converted)): 6.31 nM and 3.98 nM and 5.01 nM
- mode of action at C3aR ([1]; from BRET and cAMP accumulation assays): agonist
- IC50 ([1]; pIC50 (Replicate), individual replicates): 2.63 nM and 3.09 nM and 7.08 nM (2×) and 5.75 nM (2×) and 11.5 nM and 8.13 nM and 2.45 nM (2×) and 1.78 nM
- IC50 ([1]; pIC50 Value, Figure EV1B numerical data, curve fit): 3.89 nM
- IC50 ([1]; pIC50 ± SEM (Mean), 1 μM Forskolin, mean of independent experiments): 4.57 nM
- Span Value ([1]; span of cAMP response (% Forskolin) curve, Figure EV1B numerical data): 84.43
- Mean Diff. of pIC50, WT vs. I98A [2, 4]: 0.356
- remaining activity at 0.01 µM ([2]; I98A, Log[JR14a (M)] -8, single replicates, read-out: cAMP response (% Forskolin)): 49.1%
- remaining activity at 0.001 µM ([2]; I98A, Log[JR14a (M)] -9, single replicates, read-out: cAMP response (% Forskolin)): 88.6%
- remaining activity at 0.0001 µM ([2]; I98A, Log[JR14a (M)] -10, single replicates, read-out: cAMP response (% Forskolin)): 95.5%
- remaining activity at 10 pM ([2]; I98A, Log[JR14a (M)] -11, single replicates, read-out: cAMP response (% Forskolin)): 93.5%
- ΔpIC50 ± SE of Diff. ([2]; I98^3.28A relative to WT C3aR): -0.36 ± 0.02
- IC50 ([2]; IC50, I98^3.28A, dose-response plot): 9.13 nM
- IC50 ([2]; pIC50 (Replicate), I98^3.28A, individual replicates): 6.17 nM and 11.5 nM and 9.77 nM
- IC50 ([2]; pIC50 ± SEM (Mean), I98^3.28A, mean of independent experiments): 8.91 nM
- Mean Diff. of pIC50, WT vs. V103A [3, 4]: 0.201
- IC50 ([3]; IC50, V103^3.33A, dose-response plot): 8.93 nM
- ΔpIC50 ± SE of Diff. ([3]; V103^3.33A relative to WT C3aR): -0.20 ± 0.05
- IC50 ([3]; pIC50 (Replicate), V103^3.33A, individual replicates): 12.9 nM and 14.8 nM and 3.02 nM
- IC50 ([3]; pIC50 ± SEM (Mean), V103^3.33A, mean of independent experiments): 8.32 nM
